The source of these data is patent US20250312303A1, “ANTICANCER AGENT” (AGC Inc., priority 2022, published 2025).

Values joined by “and” are separate entries in the source; they are usually repeats but may differ in a detail not shown here. Equal values may be shown once.

Experiment [1] relates to HeLa cells. The experiment can be described thus: Tumor volume of subcutaneously transplanted HeLa cells in SCID/SCID mice. It is filed as in vivo. As to the method:
First, 0.1 mL samples of an HeLa cell solution with a concentration of 1.0×10^7 cells/mL were transplanted beneath the skin of SCID/SCID (immunodeficient) mice. Starting 7 days after the HeLa cell transplantation, PBS (control group), leucine (5 mg/kg mouse bodyweight) or trifluoroleucine (5 mg/kg mouse bodyweight) was administered intraperitoneally every day for two weeks. The growth of the tumor tissue was observed over time from the time of HeLa transplantation, and the tumor volume (mm^3) was calculated. The tumor volume (mm^3) was calculated from the major diameter (mm) of the tumor tissue and the minor diameter (mm) of the tumor tissue using the formula shown below.
With the exceptions of using monofluoroisoleucine or 5-fluoro-5-methyl-norleucine (CAS RN: 1361228-49-0) instead of the trifluoroleucine, and starting the administration of the PBS, 5-fluoro-5-methyl-norleucine or monofluoroisoleucine 11 days after rather than 7 days after the HeLa cell transplantation, the same procedure as (1) above was used to measure the volume (mm^3) of the tumor formed by the subcutaneously transplanted HeLa cells over time.
(§1) First, 0.1 mL samples of an HeLa cell solution with a concentration of 1.0×10^7 cells/mL were transplanted beneath the skin of SCID/SCID (immunodeficient) mice. Starting 7 days after the HeLa cell transplantation, PBS (control group), glutamine (Gln) (5 mg/kg mouse bodyweight), (2S,4S)Gln(1F) (5 mg/kg mouse bodyweight) or (2S,4R)Gln(1F) (5 mg/kg mouse bodyweight) was administered intraperitoneally every day for two weeks. The growth of the tumor tissue was observed over time from the time of HeLa cell transplantation, and the tumor volume (mm^3) was calculated. The tumor volume (mm^3) was determined in the same manner as that described in Example 2.
as §1, with “mouse bodyweight), or di-F-Gln(F)” for “mouse bodyweight), (2S,4S)Gln(1F) (5 mg/kg mouse bodyweight) or (2S,4R)Gln(1F)”, “bodyweight), or di-F-Gln(F) (5 mg/kg” for “bodyweight) or (2S,4R)Gln(1F) (5 mg/kg”, “of HeLa transplantation, and” for “of HeLa cell transplantation, and”

For experiment [2], the system named is HeLa cells. The experiment can be described thus: SRB assay, relative cell proliferation rate of HeLa cells. Type of experiment: cell-based. The text has this:
(§2) HeLa cells and PANC-1 cells were used as the cancer cells. Both these cells were obtained from ATCC. Further, NHDF cells obtained from Lonza Group Ltd. were used as control non-cancer cells. The culture mediums used were Dulbecco's Modified Eagle Medium (D-MEM, manufactured by FUJIFILM Wako Pure Chemical Corporation) to which 10% FBS had been added (hereinafter also referred to as the “normal medium”), a medium prepared by removing leucine from D-MEM and adding 10% FBS (hereinafter also referred to as the “Leu-removed medium”), and a medium prepared by removing valine from D-MEM and adding 10% FBS (hereinafter also referred to as the “Val-removed medium”).
(§3) The culture cells were inoculated into a 96-well culture plate at a concentration of 3×10^3 cells/well, and following adhesion, were cultured for 24, 48 or 72 hours in the normal medium, the Leu-removed medium or Val-removed medium, or a medium prepared by adding the fluorine-containing amino acid to the Leu-removed medium or Val-removed medium in an amount sufficient to achieve a final concentration of 0.8 mM. Following culturing, the cell proliferation rate was measured by SRB assay. As a control, the cell proliferation rate was measured in a similar manner for cells having a culture time of 0 hours.
(§4) The SRB assays were conducted in the following manner. Following cell culturing, the medium was removed, and 10% (wt/vol) of trichloroacetic acid was added to fix the cells. Subsequently, the fixed cells were washed three times with tap water, and then stained by adding a solution containing 0.4% (wt/vol) of sulforhodamine B dissolved in 1% acetic acid. Following subsequent washing three times with a 1% acetic acid solution, a 10 mM Tris solution was added, and the light absorbance at 540 nm was measured. The 540 nm absorbance value for each sample was used to indicate the cell quantity, and for each sample, the relative cell proliferation rate (%) at a culture time of X hours was determined using the formula below.
(§5) SRB assays were conducted in the same manner as Example 1 with the exceptions of using a medium prepared by removing glutamine from D-MEM and adding 10% FBS (hereinafter also referred to as the “Gln-removed medium”) as the culture medium instead of the Leu-removed medium, using monofluoroglutamine ((2S,4S)Gln(1F) or (2S,4R)Gln(1F)) as the fluorine-containing amino acid, and altering the amount of monofluoroglutamine added to the Gln-removed medium to an amount sufficient to achieve a final concentration of 4 mM.
(§6) SRB assays were conducted in the same manner as Example 1 with the exceptions of using the Gln-removed medium as the culture medium instead of the Leu-removed medium, using difluoroglutamine as the fluorine-containing amino acid, and altering the amount of difluoroglutamine added to the Gln-removed medium to an amount sufficient to achieve a final concentration of 4 mM.
(The SRB assay estimates cell density from bound dye.)

For another experiment, the system named is PANC-1 cells. The experiment can be described thus: SRB assay, relative cell proliferation rate of PANC-1 cells. Type of experiment: cell-based.
Description: as §2, §3, §4, §5, §6

For a further experiment, the system named is NHDF cells. The experiment is described as follows: SRB assay, relative cell proliferation rate of NHDF cells (control non-cancer cells). Type of experiment: cell-based.
Description: as §2, §3, §4, §5

Setting [3] is: 5 mg/kg intraperitoneally every day for two weeks starting day 7, 7 days since HeLa cell transplantation.
The mark [4] stands for this setting: 5 mg/kg intraperitoneally every day for two weeks starting day 7, 14 days since HeLa cell transplantation.
[5] abbreviates: 5 mg/kg intraperitoneally every day for two weeks starting day 7, 21 days since HeLa cell transplantation.
The mark [6] stands for this setting: Leu-removed medium + 0.8 mM amino acid, culture time 24 h.
Where [7] appears, read: Leu-removed medium + 0.8 mM amino acid, culture time 48 h.
Where [8] appears, read: Leu-removed medium + 0.8 mM amino acid, culture time 72 h, hydrochloride.
The mark [9] stands for this setting: Val-removed medium + 0.8 mM amino acid, culture time 24 h.
The mark [10] stands for this setting: Val-removed medium + 0.8 mM amino acid, culture time 48 h.
Setting [11] is: Val-removed medium + 0.8 mM amino acid, culture time 72 h.
[12] abbreviates: Val-removed medium + 0.8 mM amino acid, culture time 72 h, listed as monofluorovaline.
Setting [13] is: Val-removed medium + 0.8 mM amino acid, culture time 72 h, listed as hexafluorovaline.

As to `NC(=O)CC[C@H](N)C(=O)O` [Gln, glutamine, reference compound], the Tumor volume in the experiment on HeLa cells [1] (setting [3]) is 76.0 mm^3 and 97.3 mm^3; in the experiment with HeLa cells [1] (5 mg/kg intraperitoneally every day for two weeks starting day 7, 9 days since HeLa cell transplantation) it was 134.7 mm^3 and 259.1 mm^3; in the experiment on HeLa cells [1] (5 mg/kg intraperitoneally every day for two weeks starting day 7, 11 days since HeLa cell transplantation), 215.4 mm^3 and 341.0 mm^3; in the experiment with HeLa cells [1] (setting [4]) it was 488.0 mm^3 and 721.9 mm^3; in the experiment with HeLa cells [1] (5 mg/kg intraperitoneally every day for two weeks starting day 7, 16 days since HeLa cell transplantation) it was 734.1 mm^3 and 1094.6 mm^3; in the experiment with HeLa cells [1] (5 mg/kg intraperitoneally every day for two weeks starting day 7, 18 days since HeLa cell transplantation), 939.6 mm^3 and 1348.3 mm^3. Besides, the Tumor volume with HeLa cells [1] (setting [5]) was 1256.0 mm^3 and 1849.5 mm^3. In addition, the “Increase in the size of the tumor tissue compared with the control group” value in the experiment on HeLa cells [1] (HeLa tumor-bearing SCID/SCID mice, 5 mg/kg intraperitoneally every day for two weeks, result in words) was “even larger than the control group”.

For the compound `Cl.NC(CC(C(F)(F)F)C(F)(F)F)C(=O)O` (centres unmarked) [Leu(6F), 2-amino-5,5,5-trifluoro-4-(trifluoromethyl) pentanoic acid hydrochloride], the “Relative cell proliferation rate of HeLa cells” value with HeLa cells [2] (setting [6]) was determined as 137.3%; in the experiment with HeLa cells [2] (setting [7]), 264.0%; in the experiment on HeLa cells [2] (setting [8]) it was 472.5%. For the same compound, the “Relative cell proliferation rate of PANC-1 cells” value in the experiment on PANC-1 cells (setting [6]) is given as 75.5%; in the experiment with PANC-1 cells (setting [7]), 96.5%; in the experiment with PANC-1 cells (setting [8]) it was 193.6%; in the experiment with PANC-1 cells (Leu-removed medium + 0.8 mM amino acid, culture time 72 h, listed as hexafluoroleucine, hydrochloride), approximately 200%. The “Relative cell proliferation rate of NHDF cells” value is recorded as 104.7% in the experiment on NHDF cells (setting [6]), 130.1% in the experiment on NHDF cells (setting [7]) and 179.1% in the experiment on NHDF cells (setting [8]).

For the compound `CC(C)C[C@H](N)C(=O)O` [Leu, leucine, reference compound], the Tumor volume is reported as 77.4 mm^3 with HeLa cells [1] (setting [3]); 190.1 mm^3 in the experiment on HeLa cells [1] (5 mg/kg intraperitoneally every day for two weeks starting day 7, 10 days since HeLa cell transplantation); 355.3 mm^3 in the experiment with HeLa cells [1] (5 mg/kg intraperitoneally every day for two weeks starting day 7, 12 days since HeLa cell transplantation); 385.1 mm^3 in the experiment with HeLa cells [1] (setting [4]); 714.2 mm^3 in the experiment with HeLa cells [1] (5 mg/kg intraperitoneally every day for two weeks starting day 7, 17 days since HeLa cell transplantation); 1094.6 mm^3 in the experiment with HeLa cells [1] (5 mg/kg intraperitoneally every day for two weeks starting day 7, 19 days since HeLa cell transplantation). The compound further showed a Tumor volume in the experiment on HeLa cells [1] (setting [5]) of 1536.5 mm^3.

For the compound `CC(C)(F)C(N)C(=O)O` (racemic) [Val(1F), 3-fluoro-DL-valine], the figures for the “Relative cell proliferation rate of HeLa cells” value with HeLa cells [2] (setting [9]), in the experiment with HeLa cells [2] (setting [10]) and in the experiment with HeLa cells [2] (setting [11]) were 72.83%, 118.0% and 273.6%, respectively. Moreover, the “Relative cell proliferation rate of PANC-1 cells” value in the experiment on PANC-1 cells (setting [9]) is 88.8%; in the experiment on PANC-1 cells (setting [10]) it was 103.8%; in the experiment with PANC-1 cells (setting [11]) it was 105.1%; with PANC-1 cells (setting [12]), “about 100%”. The “Relative cell proliferation rate of NHDF cells” value in the experiment on NHDF cells (setting [9]) was 91.5%; in the experiment on NHDF cells (setting [10]), 70.4%; in the experiment with NHDF cells (setting [11]), 110.5%; with NHDF cells (setting [12]), “lower than the relative cell proliferation rate observed for the Val-removed medium”.

For `CC(C)(F)CC[C@H](N)C(=O)O` [5F-NorLeu, 5-fluoro-5-methyl-norleucine], the Tumor volume in the experiment with HeLa cells [1] (administration intraperitoneally every day starting day 11, 11 days since HeLa cell transplantation) is 230.6 mm^3; with HeLa cells [1] (administration intraperitoneally every day starting day 11, 13 days since HeLa cell transplantation) it was 373.9 mm^3; with HeLa cells [1] (administration intraperitoneally every day starting day 11, 15 days since HeLa cell transplantation), 684.9 mm^3; in the experiment on HeLa cells [1] (administration intraperitoneally every day starting day 11, 18 days since HeLa cell transplantation) it was 823.5 mm^3; in the experiment on HeLa cells [1] (administration intraperitoneally every day starting day 11, 20 days since HeLa cell transplantation) it was 1291.7 mm^3; in the experiment with HeLa cells [1] (administration intraperitoneally every day starting day 11, 22 days since HeLa cell transplantation), 1951.5 mm^3.

In the case of `NC(C(=O)O)C(C(F)(F)F)C(F)(F)F` (racemic) [Val(6F), 4,4,4,4′,4′,4′-hexafluoro-DL-valine], the “Relative cell proliferation rate of HeLa cells” value in the experiment on HeLa cells [2] (setting [9]) is 88.1%; with HeLa cells [2] (setting [10]), 93.7%; in the experiment on HeLa cells [2] (setting [11]) it was 67.6%; in the experiment with HeLa cells [2] (setting [13]), “less than 100%”. For the same compound, the entries for the “Relative cell proliferation rate of PANC-1 cells” value in the experiment with PANC-1 cells (setting [9]), with PANC-1 cells (setting [10]) and in the experiment with PANC-1 cells (setting [11]) were 104.3%, 133.4% and 141.3%, respectively. Moreover, the “Relative cell proliferation rate of NHDF cells” value is 109.8% in the experiment with NHDF cells (setting [9]), 104.4% in the experiment on NHDF cells (setting [10]), 125.2% with NHDF cells (setting [11]) and “lower than the relative cell proliferation rate observed for the Val-removed medium” in the experiment with NHDF cells (setting [13]).

As for `CC(C(N)C(=O)O)C(F)(F)F` (centres unmarked) [Val(3F), 2-amino-3-methyl-4,4,4-trifluorobutanoic acid], the “Relative cell proliferation rate of HeLa cells” value stood at 151.7% in the experiment on HeLa cells [2] (setting [9]), 287.6% in the experiment with HeLa cells [2] (setting [10]) and 494.3% in the experiment on HeLa cells [2] (setting [11]). The “Relative cell proliferation rate of PANC-1 cells” value in the experiment with PANC-1 cells (setting [9]) is 108.9%; in the experiment on PANC-1 cells (setting [10]), 161.2%; in the experiment with PANC-1 cells (setting [11]), 253.7%. Further, the figures for the “Relative cell proliferation rate of NHDF cells” value with NHDF cells (setting [9]), with NHDF cells (setting [10]) and in the experiment with NHDF cells (setting [11]) were 83.0%, 104.6% and 116.6%, respectively.
